Assay results published in patent publication US20080312169A1, “Cosmetic use of D-ribose” (priority 2007, published 2008).

Experiments:
[1] = tested on: normal human dermal fibroblasts (NHDF); test: Oxygen consumption (mitochondrial and cytoplasmic respiration) of NHDF in culture, BD Oxygen Biosensor System; format: cell-based; settings: 0.05% D-ribose, two hours of contact, six wells
Experimental: The inventors measured the effect of D-ribose on mitochondrial and cytoplasmic respiration of normal human dermal fibroblasts (NHDF) in culture. The cells were cultivated at 37° C. under an atmosphere of 5% CO2, in a culture solution of DMEM supplemented with 10% bovine fetal serum. […] Thus, D-ribose augments the consumption of oxygen in the cells, and consequently, the metabolism of cutaneous cells and tissues.

NHDF = test: ATP production by NHDF in culture under conditions of hypoxia; format: cell-based, human; settings: 0.05% D-ribose, 24 h pretreatment, after six hours of severe hypoxia (oxygen<2%)
Experimental: The inventors have measured the effect of D-ribose on the production of ATP by NHDF in culture, under conditions of hypoxia. The cells used were cultivated in flasks of normal human epidermal cells (NHDF) in a medium of DMEM with 10% fetal bovine serum, incubated at 37° C. in an atmosphere of 5% CO2, and 95% air until 80% confluent. On Day 1, a first measure of the level of ATP was determined on the non-treated, non-stressed NHDF. Two sets of six duplicates were 15 pretreated for 24 hours with 0.05% ribose or not treated as control. At Day 2, before the induction of hypoxia, one set of treated and control cells was harvested to measure the level of ATP. The cells of the second set were suspended, the medium renewed with DMEM with 10% fetal bovine serum with HEPES buffer in order to maintain the pH within physiological conditions during hypoxia and with EDTA in order to prevent the agglutination of the cells. The cells were held in an incubator held at 37° C., in which the atmosphere had been previously replaced by nitrogen. The cells were incubated for six hours in a condition of severe hypoxia (oxygen<2%) in the presence of 0.05% D-ribose versus the non-treated control. Recovery of the cells and measurement of the ATP was followed in the treated and control cells. […]

`O=C[C@H](O)[C@H](O)[C@H](O)CO` [D-ribose] was tested, and the “augmentation of cytoplasmic respiration over control” value [1] was 37%, the “augmentation of mitochondrial respiration over control” value [1] was 31% and the “recovery of the ATP levels, of the base levels” value (NHDF) was “about 19%”.
